Entries after “also recorded” stand apart in the source; their conditions may differ.
Key:
TDP-43 G298S iMNs = assay: Survival of TARDBP ALS iMNs; assay type: cell-based, human; details: neurotrophic factor withdrawal; DMSO or 3 uM apilimod
Procedure: (§1) (A) Survival of control or SOD1 A4V iMNs with DMSO or 3 uM apilimod. (B) Survival of TDP-43 G298S iMNs with DMSO or 3 uM apilimod. (C) Survival of MAPT V337M or isogenic control iNs.
PIKFYVE inhibition rescues the survival of TARDBP ALS, SOD1 ALS, and MAPT FTD patient neurons. Since the accumulation of misfolded proteins is a common disease mechanism in all forms of ALS, FTD, and Alzheimer's disease, it was reasoned that inducing secretory autophagy might rescue neurodegeneration in diverse patients. iMNs were generated from ALS patients harboring mutations in TARDBP or SOD1 as well as NGN2-induced neurons (iNs) from MAPT^V337M FTD. […] 2 additional isogenic pairs of iPSC lines from MAPT FTD patients, 2 additional TARDBP ALS iPSC lines, and 2 additional SOD1 ALS iPSC lines were all obtained.

C9-ALS/FTD iMNs = assay: Exosome secretion from iMNs; assay type: cell-based, human
Source text: (A) Western blot of TSG101, TDP-43, and Neurofilament heavy chain levels in the exosome fraction secreted from control or C9-ALS/FTD iMNs upon apilimod treatment. […] Kruskal-Wallis test for B, C. N=3 biological replicates per condition, one line per genotype. (D) Number of poly(GR)-GFP+ exosomes secreted from iMNs expressing exogenous poly(GR)-GFP upon DMSO or apilimod treatment. N=4 biological replicates. Exosomes were labeled with CFSE-red dye to enable detection by FACS. Unpaired t-test.
Blocking PIKFYVE activity induces secretory autophagy. […] Thus, secretory autophagy maintains proteostasis and prevents neuronal death in TDP-43 mouse models. PIKFYVE inhibition blocks autophagosome-lysosome fusion by […] their ratio in endosomal, lysosomal and autophagosomal membranes. One might expect this to be detrimental to ALS iMNs, which can degenerate due to misfolded protein accumulation. However, inhibition of autophagosome-lysosome fusion using PIKFYVE inhibition or bafilomycin can activate secretory autophagy to jettison misfolded proteins from cells. […] To test this hypothesis, exosomal release in human iMNs upon PIKFYVE inhibition was examined. […] Thus, PIKFYVE inhibition induces the secretion of TDP-43 and C9ORF72 DPRs from iMNs.
Determining if PIKFYVE suppression rescues neurodegeneration through secretory autophagy. […] ASOs were designed targeting […]. It was confirmed that the ASOs suppressed RAB27A expression in iMNs.

TDP-43 [1] = assay: Nuclear:cytoplasmic TDP-43 in sporadic ALS iMNs; assay type: cell-based, human; details: DMSO or apilimod
C9-FTD iNs = assay: Exosome secretion from iNs; assay type: cell-based, human
Source text: (A) […] of exosomes from apilimod-treated C9-FTD iNs. (B) Western blot of TSG101, TDP-43, and Neurofilament heavy chain levels in the exosome fraction secreted from control or C9-FTD iNs upon apilimod treatment. (C,D) Quantification of the exosome marker TSG101 (C) or TDP-43 (D) in the exosome fraction of control and C9-FTD iNs treated with DMSO, apilimod, or apilimod+GW4869. Kruskal-Wallis test for B, C. N=3 biological replicates per condition, one line per genotype. (E) Number of poly(GR)-GFP+ exosomes secreted from iNs expressing exogenous poly(GR)-GFP upon DMSO or apilimod treatment. N=4 biological replicates. Exosomes were labeled with CFSE-red dye to enable detection by FACS. Unpaired t-test.
To test this, exosome release from iNs upon PIKFYVE inhibition was examined. […] Thus, PIKFYVE inhibition induces the secretion of TDP-43 and C9ORF72 DPRs from iNs
PIKFYVE inhibition rescues neurodegeneration through secretory autophagy.

TDP-43 [2] = assay: TDP-43 localization in C9ORF72 iNs; assay type: cell-based, human; details: DMSO or apilimod
Source text: (§2) (A) Survival of C9ORF72 iNs with DMSO or apilimod. Log-rank test, 100 iNs per group. […] Log-rank test, 100 iNs per group. […] Mean+/−s.e.m. Kruskal-Wallis Test.

MAPT V337M iNs = assay: Survival of MAPT FTD iNs; assay type: cell-based, human; details: DMSO or apilimod (3 uM in FIG. 28)
Procedure: as §2, §1
Mutations in MAPT cause FTD with tau aggregates. To determine if iNs from FTD patients display neurodegenerative phenotypes, an established method to generate cortical neurons from iPSCs by forced expression of NGN2 was used. 3 FTD patient iPSC lines harboring a MAPTV337M mutation and their CRISPR-edited isogenic controls from a published cell bank were utilized. Neurons from MAPT-mutant iPSCs display increased phosphorylated and oligomeric tau, similar to post-mortem patient tissue (FIG. 18A). […] Thus, MAPT iNs display key features of FTD with tau pathology.
PIKFYVE inhibition rescues the survival of TARDBP ALS, SOD1 ALS, and MAPT FTD patient neurons. Since the accumulation of misfolded proteins is a common disease mechanism in all forms of ALS, FTD, and Alzheimer's disease, it was reasoned that inducing secretory autophagy might rescue neurodegeneration in diverse patients. iMNs were generated from ALS patients harboring mutations in TARDBP or SOD1 as well as NGN2-induced neurons (iNs) from MAPT^V337M FTD. […]

Optineurin (OPTN) = assay: Optineurin in CSF of mice after intracerebroventricular apilimod; assay type: in vivo; details: intracerebroventricular injection into adult mice; mass spectrometry; apilimod vs vehicle
Procedure: (A) Mass spectrometry analysis of Optineurin (OPTN) levels in the cerebrospinal fluide (CSF) of mice 2 hours after direct intracerebroventral injection of a vehicle control or apilimod. n=3 mice per group. The ratio of Optineurin in the CSF of apilimod:vehicle-injected mice is shown. (B) Poly(GR)+ DPR punctae in wild-type or C9ORF72 mice treated with intracerebroventricular injection of apilimod for 48 hours. Mean+/−s.e.m. Data points are individual neurons taken across 3 mice per group. One-way ANOVA. […] Unpaired t-test. (D) Pikfyve qRT-PCR of whole brain. n=3 mice per group at postnatal day 7. Unpaired t-test. (E) Gait impairment scoring in wild-type (WT) and TDP-43 homozygous mice treated with a negative control (NC) ASO or Pikfyve ASO at postnatal day 1. Mean+/−s.e.m. Unpaired t-test at each time point between the negative control and Pikfyve ASO conditions for TDP-43 mice. A score of 0 indicates no phenotype and 4 indicates the most severe phenotype. (F) Vehicle or GW4869 were delivered by intraperitoneal injection every 48 h starting from day 6 in negative control and Pikfyve ASO-treated mice. Mean+/−s.e.m. One-way ANOVA at each time point between the four conditions. *p<0.05, **p<0.01, ***p<0.001, ****p<0.0001.
PIKFYVE inhibition rescues neurodegeneration in vivo. […]

[3] = western blot of exosome fraction

In the case of `Cc1cccc(/C=N/Nc2cc(N3CCOCC3)nc(OCCc3ccccn3)n2)c1` [apilimod], the “survival of TARDBP ALS iMNs” value (TDP-43 G298S iMNs) is reported as “rescued the survival”, the “poly(GR)-GFP+ exosomes released from iMNs” value (C9-ALS/FTD iMNs; iMNs expressing poly(GR)50-GFP, FACS) is reported as “released significantly more poly(GR)-GFP+ exosomes” and the “TDP-43 in exosomes from C9ORF72 ALS iMNs” value (C9-ALS/FTD iMNs; [3]) is reported as “contained high levels of TDP-43”. The “release of TSG101+ exosomes from iMNs” value (C9-ALS/FTD iMNs; western blotting) was “significantly increased the release of TSG101+ exosomes”, the “nuclear localization of TDP-43 in sporadic ALS iMNs” value (TDP-43 [1]) was “rescued the nuclear localization of TDP-43” and the “release of TSG101+ exosomes from iNs” value (C9-FTD iNs; electron microscopy and western blotting) was “increased release of TSG101+ exosomes”. For the same molecule, the “poly(GR)-GFP+ exosomes released from iNs” value (C9-FTD iNs; iNs expressing poly(GR)50-GFP, FACS of CFSE-labelled exosomes) was “released significantly more poly(GR)-GFP+ exosomes”, the “TDP-43 in exosomes from C9ORF72 FTD iNs” value (C9-FTD iNs; [3]) was “contained high levels of TDP-43” and the “TDP-43 mislocalization in C9ORF72 iNs” value (TDP-43 [2]) was “rescued TDP-43 mislocalization”. The “survival of MAPT FTD iNs” value (MAPT V337M iNs) was “potently rescued; also recorded: rescued the survival” and the “increase in CSF OPTN levels” value (Optineurin (OPTN)) was 18 fold.

Source: patent US20230098111A1, “COMPOSITIONS AND METHODS TO TREAT NEUROLOGICAL DISEASES” (University of Southern California, priority 2020, published 2023)
